Results: patent US20250263400A1, “GCN2 MODULATOR COMPOUNDS” (Alesta Therapeutics BV, priority 2022, published 2025)

Target: GCN2 (Homo sapiens (Human), UniProt Q9P2K8)
Test: GCN2 enzyme assay
Assay type: biochemical
Protocol: For GCN2 enzyme assays, testing compounds were prepared at proper concentrations in DMSO solution. IC50 values were calculated from a remaining activity using read conversion ratio.

Sequence of GCN2 (Q9P2K8 whole entry, species assumed): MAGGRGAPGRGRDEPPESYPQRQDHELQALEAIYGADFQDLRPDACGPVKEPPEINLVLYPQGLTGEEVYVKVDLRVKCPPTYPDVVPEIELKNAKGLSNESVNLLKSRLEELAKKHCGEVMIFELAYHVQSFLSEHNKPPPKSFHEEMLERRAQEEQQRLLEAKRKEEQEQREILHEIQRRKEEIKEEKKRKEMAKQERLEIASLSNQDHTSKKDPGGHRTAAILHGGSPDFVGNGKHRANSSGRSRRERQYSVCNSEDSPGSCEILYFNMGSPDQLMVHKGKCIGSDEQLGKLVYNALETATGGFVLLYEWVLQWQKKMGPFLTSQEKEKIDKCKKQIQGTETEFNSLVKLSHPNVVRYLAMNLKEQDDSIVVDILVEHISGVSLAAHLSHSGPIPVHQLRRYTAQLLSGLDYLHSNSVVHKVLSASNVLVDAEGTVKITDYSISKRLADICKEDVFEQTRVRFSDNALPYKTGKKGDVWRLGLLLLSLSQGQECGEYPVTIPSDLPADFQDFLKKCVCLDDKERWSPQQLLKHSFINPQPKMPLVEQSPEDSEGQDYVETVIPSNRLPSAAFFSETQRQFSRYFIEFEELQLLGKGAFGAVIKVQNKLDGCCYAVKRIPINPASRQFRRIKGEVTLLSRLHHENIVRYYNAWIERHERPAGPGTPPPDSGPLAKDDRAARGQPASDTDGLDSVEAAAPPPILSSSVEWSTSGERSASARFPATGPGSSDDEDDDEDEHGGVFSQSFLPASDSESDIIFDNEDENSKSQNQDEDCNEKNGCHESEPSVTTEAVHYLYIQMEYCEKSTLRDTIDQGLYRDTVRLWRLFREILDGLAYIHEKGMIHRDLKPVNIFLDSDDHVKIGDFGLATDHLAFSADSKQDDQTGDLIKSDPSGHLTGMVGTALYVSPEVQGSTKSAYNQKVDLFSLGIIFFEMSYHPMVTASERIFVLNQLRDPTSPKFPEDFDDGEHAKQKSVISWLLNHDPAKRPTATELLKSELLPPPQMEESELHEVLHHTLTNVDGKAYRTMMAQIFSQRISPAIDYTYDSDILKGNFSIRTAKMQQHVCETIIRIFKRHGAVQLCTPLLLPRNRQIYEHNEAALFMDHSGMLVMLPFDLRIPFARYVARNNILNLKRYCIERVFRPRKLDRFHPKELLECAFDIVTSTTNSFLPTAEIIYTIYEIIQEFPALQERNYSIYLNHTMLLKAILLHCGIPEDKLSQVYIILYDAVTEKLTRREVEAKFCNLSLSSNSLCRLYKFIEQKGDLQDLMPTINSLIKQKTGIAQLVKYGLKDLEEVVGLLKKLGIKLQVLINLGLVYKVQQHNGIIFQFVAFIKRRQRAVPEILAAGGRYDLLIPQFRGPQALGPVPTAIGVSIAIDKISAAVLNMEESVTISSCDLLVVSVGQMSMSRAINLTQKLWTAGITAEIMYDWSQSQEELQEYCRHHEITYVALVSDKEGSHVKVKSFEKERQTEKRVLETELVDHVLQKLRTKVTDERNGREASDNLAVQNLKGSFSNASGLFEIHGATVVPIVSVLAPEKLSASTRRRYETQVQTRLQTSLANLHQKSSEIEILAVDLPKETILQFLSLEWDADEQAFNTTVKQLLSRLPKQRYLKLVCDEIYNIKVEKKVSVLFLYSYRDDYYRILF

| SMILES | IC50 |
| --- | --- |
| COCCNC(=O)[C@H]1CC[C@H](Nc2ncc3cc(-c4c(Cl)ccc(NS(=O)(=O)c5cc(Cl)cnc5OC)c4Cl)ccc3n2)CC1 [Compound 21, (1R,4R)-4-((6-(2,6-dichloro-3-((5-chloro-2-methoxypyridine)-3-sulfonamido)phenyl)quinazolin-2-yl)amino)-N-(2-methoxyethyl)cyclo-hexane-1-carboxamide] | 0.0319 µM |
| CCc1cc(-c2c(Cl)cnc(NS(=O)(=O)c3cc(Cl)cc(CO)c3Cl)c2Cl)cc2cnc(N)nc12 [Compound 35, N-(4-(2-amino-8-ethylquinazolin-6-yl)-3,5-dichloropyridin-2-yl)-2,5-dichloro-3-(hydroxymethyl)ben-zenesulfonamide] | 0.00882 µM |
| CN[C@H]1CC[C@H](Nc2ncc3cc(-c4c(F)ccc(NS(=O)(=O)c5ccccc5Cl)c4F)ccc3n2)CC1 [Compound 66, 2-chloro-N-(2,4-difluoro-3-(2-(((1R,4R)-4-(methylamino)cyclo-hexyl)amino)quina-zolin-6-yl)phenyl)benzene-sulfonamide] | 0.0632 µM |
| COCCNC(=O)N1CC[C@@H](Nc2ncc3cc(-c4c(Cl)ccc(NS(=O)(=O)c5cc(Cl)cnc5OC)c4Cl)ccc3n2)C1 [Compound 18] | 0.0416 µM |
| COCCNC(=O)[C@H]1C[C@H](Nc2ncc3cc(-c4c(Cl)ccc(NS(=O)(=O)c5cc(Cl)cnc5OC)c4Cl)ccc3n2)CN1 [Compound 17, (2R,4S)-4-((6-(2,6-dichloro-3-((5-chloro-2-methoxypyridine)-3-sulfonamido)phenyl)quinazolin-2-yl)amino)-N-(2-methoxyethyl)pyr-rolidine-2-carboxamide] | 0.00917 µM |
| COCCNC[C@@H]1CCC(Nc2ncc3cc(-c4c(Cl)ccc(NS(=O)(=O)c5cc(Cl)cnc5OC)c4Cl)ccc3n2)C1 (stereo partly drawn) [Compound 7, 5-chloro-N-(2,4-dichloro-3-(2-(((1R,3R)-3-(((2-methoxyethyl)ami-no)methyl)cyclopent-yl)amino)quina-zolin-6-yl)phenyl)-2-methoxypyridine-3-sulfonamide] | 0.0126 µM |
| COCCNC(=O)[C@H]1C[C@H](Nc2ncc3cc(-c4c(F)ccc(NS(=O)(=O)c5cc(Cl)cnc5OC)c4F)ccc3n2)CN1 [Compound 15, (2R,4S)-4-((6-(3-((5-chloro-2-methoxypyridine)-3-sulfonamido)-2,6-difluorophenyl)quina-zolin-2-yl)amino)-N-(2-methoxyethyl)pyr-rolidine-2-carboxamide] | 0.00418 µM |
| COCCNC(=O)N1CC[C@@H](Nc2ncc3cc(-c4c(F)ccc(NS(=O)(=O)c5cc(Cl)cnc5OC)c4F)ccc3n2)C1 [Compound 5, (R)-3-((6-(3-((5-chloro-2-methoxypyridine)-3-sulfonamido)-2,6-difluorophenyl)quina-zolin-2-yl)amino)-N-(2-methoxyethyl)pyr-rolidine-1-carboxamide] | 0.0114 µM |
| COCCNC(=O)N1CC[C@@H](Nc2ncc3cc(-c4c(F)ccc(NS(=O)(=O)c5cc(Cl)cc(CO)c5Cl)c4F)ccc3n2)C1 [Compound 1, (R)-3-((6-(3-((2,5-dichloro-3-(hydroxymethyl)phe-nyl)sulfonamido)-2,6-difluorophenyl)quina-zolin-2-yl)amino)-N-(2-methoxyethyl)pyr-rolidine-1-carboxamide] | 0.0104 µM |
| CCc1cc(-c2c(F)ccc(NS(=O)(=O)c3cc(Cl)cnc3OC)c2F)cc2cnc(N[C@H]3CC[C@H](N)CC3)nc12 [Compound 52, N-(3-(2-(((1R,4R)-4-aminocyclohexyl)amino)-8-ethylquinazolin-6-yl)-2,4-difluorophenyl)-5-chloro-2-methoxypyridine-3-sulfonamide] | 0.00513 µM |
| NC(=O)[C@@H]1CC[C@@H](Nc2ncc3cc(-c4c(F)ccc(NS(=O)(=O)c5cc(Cl)cc(CO)c5Cl)c4F)ccc3n2)C1 [Compound 11, (1R,3R)-3-((6-(3-((2,5-dichloro-3-(hydroxymethyl)phe-nyl)sulfonamido)-2,6-difluorophenyl)quina-zolin-2-yl)amino)cyclopent-ane-1-carboxamide] | 0.00212 µM |
| COCCNC(=O)[C@H]1CC[C@H](Nc2ncc3cc(-c4c(F)ccc(NS(=O)(=O)c5cc(Cl)cnc5OC)c4F)ccc3n2)CC1 [Compound 20, (1R,4R)-4-((6-(3-((5-chloro-2-methoxypyridine)-3-sulfonamido)-2,6-difluorophenyl)quina-zolin-2-yl)amino)-N-(2-methoxyethyl)cyclo-hexane-1-carboxamide] | 0.0102 µM |
| COc1ncc(Cl)cc1S(=O)(=O)Nc1ccc(F)c(-c2ccc3nc(N[C@H]4CC[C@H](N(C)C)CC4)ncc3c2)c1F [Compound 61, 5-chloro-N-(3-(2-(((1R,4R)-4-(dimethylamino)cy-clohexyl)amino)quinazolin-6-yl)-2,4-difluorophenyl)-2-methoxypyridine-3-sulfonamide] | 0.00235 µM |
| Nc1ncc2cc(-c3c(F)cnc(NS(=O)(=O)c4ccccc4Cl)c3F)ccc2n1 [Compound 75, N-(4-(2-aminoquinazolin-6-yl)-3,5-difluoropyridin-2-yl)-2-chlorobenzenesulfon-amide] | 0.367 µM |
| CN[C@H]1CC[C@H](Nc2ncc3cc(-c4c(F)ccc(NS(=O)(=O)c5cc(Cl)cnc5OC)c4F)ccc3n2)CC1 [Compound 48, 5-chloro-N-(2,4-difluoro-3-(2-(((1R,4R)-4-(methylamino)cyclo-hexyl)amino)quina-zolin-6-yl)phenyl)-2-methoxypyridine-3-sulfonamide] | 0.00323 µM |
| CCc1cc(-c2c(F)ccc(NS(=O)(=O)c3ccccc3Cl)c2F)cc2cnc(N[C@H]3CC[C@H](NC)CC3)nc12 [Compound 65, 2-chloro-N-(3-(8-ethyl-2-(((1R,4R)-4-(methylamino)cyclo-hexyl)amino)quina-zolin-6-yl)-2,4-difluorophenyl)ben-zenesulfonamide] | 0.0437 µM |
| CN(C)[C@H]1CC[C@H](Nc2ncc3cc(-c4c(F)ccc(NS(=O)(=O)c5ccccc5Cl)c4F)ccc3n2)CC1 [Compound 70, 2-chloro-N-(3-(2-(((1R,4R)-4-(dimethylamino)cy-clohexyl)amino)quinazolin-6-yl)-2,4-difluorophenyl)ben-zenesulfonamide] | 0.0812 µM |
| N[C@H]1CC[C@H](Nc2ncc3cc(-c4c(F)ccc(NS(=O)(=O)c5ccccc5Cl)c4F)ccc3n2)CC1 [Compound 71, N-(3-(2-(((1R,4R)-4-aminocyclohexyl)amino)quinazolin-6-yl)-2,4-difluorophenyl)-2-chlorobenzenesulfon-amide 2,2,2-trifluoroacetate] | 0.123 µM |
| CN(C)[C@H]1CC[C@H](Nc2ncc3cc(-c4c(F)ccc(NS(=O)(=O)c5cc(Cl)cc(CO)c5Cl)c4F)ccc3n2)CC1 [Compound 53, 2,5-dichloro-N-(3-(2-(((1R,4R)-4-(dimethylamino)cy-clohexyl)amino)quinazolin-6-yl)-2,4-difluorophenyl)-3-(hydroxymethyl)ben-zenesulfonamide] | 0.00111 µM |
| CCc1cc(-c2c(F)ccc(NS(=O)(=O)c3ccccc3Cl)c2F)cc2cnc(N[C@H]3CC[C@H](N(C)C)CC3)nc12 [Compound 64, 2-chloro-N-(3-(2-(((1R,4R)-4-(dimethylamino)cy-clohexyl)amino)-8-ethylquinazolin-6-yl)-2,4-difluorophenyl)ben-zenesulfonamide] | 0.0268 µM |
